Source: patent US20150105252A1, “SUBSTITUTED PYRAZOLES AS HERBICIDES” (E I DU PONT DE NEMOURS AND COMPANY, priority 2013, published 2015)

Columns and labels:
bluegrass [1] = test: Test D preemergence; type: in vivo, Poa annua; details: Preemergence, scale 0 to 100
Procedure, shortened: (§1)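 Seeds are planted in silt loam and treated preemergence, while parallel plantings in a peat moss/vermiculite medium with starter nutrients receive postemergence sprays at the 1- to 4-leaf stage. All formulations use a non-phytotoxic solvent mixture with surfactant. Plants are kept in a controlled growth environment and rated visually after 14–21 days.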

blackgrass [2] = test: Test D preemergence; type: in vivo, Alopecurus myosuroides; details: Preemergence, scale 0 to 100
Procedure, shortened: as §1

chickweed [3] = test: Test D preemergence; type: in vivo, Stellaria media; details: Preemergence, scale 0 to 100
Procedure, shortened: as §1

galium [4] = test: Test D preemergence; type: in vivo, Galium aparine; details: Preemergence, scale 0 to 100
Procedure, shortened: as §1

field poppy [5] = test: Test D preemergence; type: in vivo, Papaver rhoeas; details: Preemergence, scale 0 to 100
Procedure, shortened: as §1

ryegrass, Italian = test: Test D preemergence; type: in vivo, Lolium multiflorum; details: Preemergence, scale 0 to 100
Procedure, shortened: as §1

oilseed rape [6] = test: Test D preemergence; type: in vivo, Brassica napus; details: Preemergence, scale 0 to 100
Procedure, shortened: as §1

mustard, wild = test: Test D preemergence; type: in vivo, Sinapis arvensis; details: Preemergence, scale 0 to 100
Procedure, shortened: as §1

oat, wild = test: Test D preemergence; type: in vivo, Avena fatua; details: Preemergence, scale 0 to 100
Procedure, shortened: as §1

bluegrass [7] = test: Test D postemergence; type: in vivo, Poa annua; details: scale 0 to 100
Procedure, shortened: as §1

blackgrass [8] = test: Test D postemergence; type: in vivo, Alopecurus myosuroides; details: scale 0 to 100
Procedure, shortened: as §1

chickweed [9] = test: Test D postemergence; type: in vivo, Stellaria media; details: scale 0 to 100
Procedure, shortened: as §1

galium [10] = test: Test D postemergence; type: in vivo, Galium aparine; details: scale 0 to 100
Procedure, shortened: as §1

bromegrass, downy = test: Test D postemergence; type: in vivo, Bromus tectorum; details: scale 0 to 100
Procedure, shortened: as §1

field poppy [11] = test: Test D postemergence; type: in vivo, Papaver rhoeas; details: scale 0 to 100
Procedure, shortened: as §1

foxtail, green = test: Test D postemergence; type: in vivo, Setaria viridis; details: scale 0 to 100
Procedure, shortened: as §1

oilseed rape [12] = test: Test D postemergence; type: in vivo, Brassica napus; details: scale 0 to 100
Procedure, shortened: as §1

wheat, spring = test: Test D postemergence; type: in vivo, Triticum aestivum; details: scale 0 to 100
Procedure, shortened: as §1

wheat, winter = test: Test D postemergence; type: in vivo, Triticum aestivum; details: scale 0 to 100
Procedure, shortened: as §1

windgrass = test: Test D postemergence; type: in vivo, Apera spica-venti; details: scale 0 to 100
Procedure, shortened: as §1

Compound: CCCc1cc(C(=O)NC2CC2)nn1Cc1cc(C(F)(F)F)nn1C [Compound 202]
- Plant response rating, Bluegrass (bluegrass [1]; 31 g ai/ha): 10
- Plant response rating, Bluegrass (bluegrass [1]; 62 g ai/ha): 5
- Plant response rating, Bluegrass (bluegrass [1]; 125 g ai/ha): 50
- Plant response rating, Bluegrass (bluegrass [1]; 250 g ai/ha): 80
- Plant response rating, Blackgrass (blackgrass [2]; 31 g ai/ha): 5
- Plant response rating, Blackgrass (blackgrass [2]; 62 g ai/ha): 35
- Plant response rating, Blackgrass (blackgrass [2]; 125 g ai/ha): 75
- Plant response rating, Blackgrass (blackgrass [2]; 250 g ai/ha): 80
- Plant response rating, Chickweed (chickweed [3]; 31 g ai/ha): 100
- Plant response rating, Chickweed (chickweed [3]; 62 g ai/ha): 100
- Plant response rating, Chickweed (chickweed [3]; 125 g ai/ha): 100
- Plant response rating, Chickweed (chickweed [3]; 250 g ai/ha): 100
- Plant response rating, Galium (galium [4]; 62 g ai/ha): 35
- Plant response rating, Galium (galium [4]; 125 g ai/ha): 70
- Plant response rating, Galium (galium [4]; 250 g ai/ha): 100
- Plant response rating, Field Poppy (field poppy [5]; 62 g ai/ha): 100
- Plant response rating, Field Poppy (field poppy [5]; 125 g ai/ha): 100
- Plant response rating, Field Poppy (field poppy [5]; 250 g ai/ha): 100
- Plant response rating, Ryegrass, Italian (ryegrass, Italian; 62 g ai/ha): 0
- Plant response rating, Ryegrass, Italian (ryegrass, Italian; 125 g ai/ha): 40
- Plant response rating, Ryegrass, Italian (ryegrass, Italian; 250 g ai/ha): 80
- Plant response rating, Oilseed Rape (oilseed rape [6]; 62 g ai/ha): 65
- Plant response rating, Oilseed Rape (oilseed rape [6]; 125 g ai/ha): 70
- Plant response rating, Oilseed Rape (oilseed rape [6]; 250 g ai/ha): 90
- Plant response rating, Mustard, Wild (mustard, wild; 62 g ai/ha): 100
- Plant response rating, Mustard, Wild (mustard, wild; 125 g ai/ha): 100
- Plant response rating, Mustard, Wild (mustard, wild; 250 g ai/ha): 100
- Plant response rating, Oat, Wild (oat, wild; 62 g ai/ha): 15
- Plant response rating, Oat, Wild (oat, wild; 125 g ai/ha): 65
- Plant response rating, Oat, Wild (oat, wild; 250 g ai/ha): 100
- Bluegrass plant response rating (bluegrass [7]; Postemergence, 31 g ai/ha): 20
- Bluegrass plant response rating (bluegrass [7]; Postemergence, 125 g ai/ha): 25
- Bluegrass plant response rating (bluegrass [7]; Postemergence, 250 g ai/ha): 35
- Bluegrass plant response rating (bluegrass [7]; postemergence, 62 g ai/ha): 20
- Blackgrass plant response rating (blackgrass [8]; Postemergence, 31 g ai/ha): 15
- Blackgrass plant response rating (blackgrass [8]; Postemergence, 125 g ai/ha): 25
- Blackgrass plant response rating (blackgrass [8]; Postemergence, 250 g ai/ha): 35
- Blackgrass plant response rating (blackgrass [8]; postemergence, 62 g ai/ha): 15
- Chickweed plant response rating (chickweed [9]; Postemergence, 31 g ai/ha): 55
- Chickweed plant response rating (chickweed [9]; Postemergence, 125 g ai/ha): 45
- Chickweed plant response rating (chickweed [9]; Postemergence, 250 g ai/ha): 70
- Chickweed plant response rating (chickweed [9]; postemergence, 62 g ai/ha): 55
- Galium plant response rating (galium [10]; Postemergence, 31 g ai/ha): 70
- Galium plant response rating (galium [10]; Postemergence, 125 g ai/ha): 70
- Galium plant response rating (galium [10]; Postemergence, 250 g ai/ha): 75
- Galium plant response rating (galium [10]; postemergence, 62 g ai/ha): 70
- Bromegrass, Downy plant response rating (bromegrass, downy; Postemergence, 31 g ai/ha): 25
- Bromegrass, Downy plant response rating (bromegrass, downy; Postemergence, 125 g ai/ha): 35
- Bromegrass, Downy plant response rating (bromegrass, downy; Postemergence, 250 g ai/ha): 35
- Bromegrass, Downy plant response rating (bromegrass, downy; postemergence, 62 g ai/ha): 25
- Field Poppy plant response rating (field poppy [11]; Postemergence, 31 g ai/ha): 50
- Field Poppy plant response rating (field poppy [11]; Postemergence, 125 g ai/ha): 50
- Field Poppy plant response rating (field poppy [11]; Postemergence, 250 g ai/ha): 75
- Field Poppy plant response rating (field poppy [11]; postemergence, 62 g ai/ha): 50
- Foxtail, Green plant response rating (foxtail, green; Postemergence, 31 g ai/ha): 20
- Foxtail, Green plant response rating (foxtail, green; Postemergence, 125 g ai/ha): 20
- Foxtail, Green plant response rating (foxtail, green; Postemergence, 250 g ai/ha): 30
- Foxtail, Green plant response rating (foxtail, green; postemergence, 62 g ai/ha): 20
- Oilseed Rape plant response rating (oilseed rape [12]; Postemergence, 31 g ai/ha): 40
- Oilseed Rape plant response rating (oilseed rape [12]; Postemergence, 125 g ai/ha): 50
- Oilseed Rape plant response rating (oilseed rape [12]; Postemergence, 250 g ai/ha): 60
- Oilseed Rape plant response rating (oilseed rape [12]; postemergence, 62 g ai/ha): 40
- Wheat, Spring plant response rating (wheat, spring; Postemergence, 31 g ai/ha): 10
- Wheat, Spring plant response rating (wheat, spring; Postemergence, 125 g ai/ha): 10
- Wheat, Spring plant response rating (wheat, spring; Postemergence, 250 g ai/ha): 20
- Wheat, Spring plant response rating (wheat, spring; postemergence, 62 g ai/ha): 10
- Wheat, Winter plant response rating (wheat, winter; Postemergence, 31 g ai/ha): 15
- Wheat, Winter plant response rating (wheat, winter; Postemergence, 125 g ai/ha): 20
- Wheat, Winter plant response rating (wheat, winter; Postemergence, 250 g ai/ha): 25
- Wheat, Winter plant response rating (wheat, winter; postemergence, 62 g ai/ha): 15
- Windgrass plant response rating (windgrass; Postemergence, 31 g ai/ha): 15
- Windgrass plant response rating (windgrass; Postemergence, 125 g ai/ha): 25
- Windgrass plant response rating (windgrass; Postemergence, 250 g ai/ha): 35
- Windgrass plant response rating (windgrass; postemergence, 62 g ai/ha): 15
